From patent US20170066717A1, “NEW PHENYLAZETIDINECARBOXYLATE OR -CARBOXAMIDE COMPOUNDS” (INVENTIVA, priority 2014, published 2017) come the findings set out here.

The nature of data set [1]: Plasma pharmacokinetics in mice after oral administration. The settings on record: mouse, male C57/Bl6 mice, oral 10 mg/kg; for AUC: sampling 15 min to 7 h, log-linear trapezoidal method, read-out: AUCplasma; for Cmax: suspension in 1% methylcellulose/0.1% Poloxamer 188. The format is in vivo. The procedure: (§1) Three series of in vivo tests were carried out with compounds representative of the invention, for the purpose of determining their pharmacokinetic plasma profile and their brain penetration.
1. Study of the Plasma Phannacokinectis in Mice After Oral Administration
Male C57/B16 mice (25-30 g) originating from the establishment Janvier, Le Genest-St-Isle, France were used for this study (9 mice per dose). The animals were fed with standard feed for rodents (Purina Mills, St. Louis, Mo.), placed in cages and subjected to light/darkness cycles of 12 h/12 h, the temperature of the room being maintained at 22±2° C. and the humidity level at 55±10%.
The mice were not deprived food before the administration. Water was provided at will throughout the study. The test compound was admistered orally at 10 mg/kg. For the oral administration at 10 mg/kg, the animals were green, by gavage, 10 mL/kg of a suspension of the test compound, prepared in 1% methylcellulose, 400 cps/0.1% Poloxamer 188/water.
The animals were sacrificed under anesthesia at times 15 min, 30 min, 1 h, 3 h and 7 h after gavage. The blood was collected at each time, and from each animal sacrificed 0.5 mL of blood collected in 1.5 mL tubes containing 20 μL of evaporated anticoagulant (solution of sodium heparinate at 1000 IU/mL) was centrifuged at 4500 g for 3 min in order to obtain approximately 200 μL of plasma. The plasma was divided up into 2 aliquots of 70 μL minimum, which were stoted at −20° C. until they were treated by protein precipitation and then analysis by liquid chromatography coupled to tandem mass spectrometry (LC-MS/MS) in order to quantify the compound tested.
The pharmacokinetic plasma parameters in the mice after oral administration were determined using a non-compartmental approach with the Phoenix WinNonLin software. The area under the curve (AUC0-1) was determined bv the log-linear trapezoidal method. The tesults are brought together in the following table.

The next data set has as its target T1, NURR-1/RXRα (Homo sapiens, UniProt P19793).
T1 construct: expressed in transfected cells; host or cells: Cos-7 cells
The data set can be described thus: Transactivation test, NURR-1-Gal4/RXRα, luciferase reporter in Cos-7 cells. The data set is classed as cell-based. The settings on record: for Emax: COS-7, induction level relative to reference XCT0135908 at 2×10^−5 M (=100%), read-out: hNurr1_RXRaFL Emax (%); for EC50: Cos-7 cells, NURR-1-Gal4/RXRα, luciferase reporter, read-out: hNurr1_RXRaFL EC50. A general note: In a reporter assay the amount or activity of a reporter protein is the signal.

Another data set addresses T2, NURR-1/RXRγ (Homo sapiens, UniProt P48443).
T2 construct: expressed in transfected cells; host or cells: Cos-7 cells
Put plainly: Transactivation test, NURR-1-Gal4/RXRγ, luciferase reporter in Cos-7 cells. The data set is classed as cell-based. The settings on record: for Emax: COS-7, induction level relative to reference XCT0135908 at 2×10^−5 M (=100%), read-out: hNurr1_RXRgFL Emax (%); for EC50: Cos-7 cells, NURR-1-Gal4/RXRγ, luciferase reporter, read-out: hNurr1_RXRgFL EC50.

Data set [2] has as its system dopaminergic neurons of primary culture of rat embryo mesencephalon treated with MPP+. The data set can be described thus: Neuroprotection in primary culture of rat embryo mesencephalon treated with MPP+ (count of tyrosine hydroxylase expressing cells). The data set is classed as cell-based. The settings on record: recombinant human BDNF 10 ng/mL = 100%, 2 days with MPP+. On the procedure:
Another in vitro test was carried out with the compounds according to the invention, for the purpose of verifying that the molecules indeed have the expected neuroprotective effect in vitro.
The compounds were tested in a model of primary culture of rat embryo mesencephalon treated with 1-methyl-4-phenylpyridinium (MPP+), which is the active metabolite of 1-methyl-4-phenyl-1,2,3,6-tetrahydropyridine (MPTP). MPP+ enters into dopananergic neurons via the dopamine transporter and causes the death of these dopaminergic neurons. The following protocol was used.
Gestating female rats (15 days of gestation) were euthanized and the rat embryos were removed. The mesencephalons were removed. The tissue was then dissociated mechanically and by using trypsin. The cells collected after centrifugation were distributed into 96-well plates and left to stand for 5 days. The culture conditions made it possible to obtain a cell layer composed of neurons (dopaminergic and others) and astrocytes. On the 6th day, the cells were optionally treated with MPP+ in the presence or absence of test compound. After 2 days of incubation, the cells were fixed and various cell labellings were carried out; staining of the nuclei with the Hoechst fluorescent label and immunolabelling of tyrosine hydroxylase. The cells expressing tyrosine hydroxylase were counted using an image analyzer coupled to an optical microscope.
Recombinant human BDNF trophic factor (10 ng/mL) was used as reference. The activities of the compounds are given as percentages of activity relative to the BDNF reference, the activity of which is arbitrarily defined as being equal to 100%.

The nature of data set [3]: Brain penetration in rats after intravenous administration. The data set is classed as in vivo. The settings on record: rat; for Kp at 4 h: male, Wistar, intravenous, 4 mg/kg, ratio of Cmax brain to Cmax plasma after the 4 hours of infusion, rats, read-out: Kp (partition coefficient between the brain and the plasma); for Cmax at 4 h: male Wistar rats, 4 mg/kg iv infusion into the jugular vein for 4 hours, plasma at end of infusion. The procedure:
as §1
2. Study of the Brain Penetration in Rats After Intravenous Administration
Male Wistar rats (250-300 g) originating from the establishment Janvier, Le Genest-St-Isle, France were used for this study (4 rats per study). The animals were fed with standard feed for rodents (Purina Mills, St. Louis, Mo.), placed in cages and subjected to light/darkness cycles of 12 h/12 h, the room temperature being maintained at 22±2° C. and the humidity level at 55±10%. The rats were not deprived food before the administration. Water was provided at will throughout the study.
The test compound was administered intravenously at 4 mg/kg by infusion into the jugular vein for 4 hours. For the intravenous administration, the animals were infused with 12 mL/kg of a solution of the test compound, prepared in 2% Cremophor EL/0.9% NaCl.
The animals were sacrificed under anesthesia after 4 hours of infusion. The blood and the brain were collected from each sacrificed animal 0.5 mL of blood collected in 1.5 mL tubes containing 20 μL of evaporated anticoagulant (solution of sodium heparinate at 1000 IU/mL) was centrifuged at 4500 g for 3 min in order to obtain approximately 200 μL of plasma. The plasma was divided up into 2 aliquots of 70 μL minimum, which were stored at −20° C. until they were treated by protein precipitation and then analysis by liquid chromatography coupled to tandem mass spectrometry (LC-MS/MS) in order to quantify the compound tested.
The brains were immersed in liquid nitrogen directly after they were removed, then stored at −20° C. for analysis. The brains were then ground in the presence of an aqueous/organic solvent mixture in order to obtain a homogenate. These homogenates were then centrifuged and the compound tested was extracted from the supernatant obtained, by liquid-liquid extraction, and then quantified by LC-MS/MS.
The brain penetration in the rats is represented by the Kp, which is the partition coefficient between the brain and the plasma. It is calculated by the ratio of the concentration measured in the brain (Cmax brain) and the plasma (Cmax plasma) after the 4 hours of infusion.

T2 sequence (P48443 whole entry): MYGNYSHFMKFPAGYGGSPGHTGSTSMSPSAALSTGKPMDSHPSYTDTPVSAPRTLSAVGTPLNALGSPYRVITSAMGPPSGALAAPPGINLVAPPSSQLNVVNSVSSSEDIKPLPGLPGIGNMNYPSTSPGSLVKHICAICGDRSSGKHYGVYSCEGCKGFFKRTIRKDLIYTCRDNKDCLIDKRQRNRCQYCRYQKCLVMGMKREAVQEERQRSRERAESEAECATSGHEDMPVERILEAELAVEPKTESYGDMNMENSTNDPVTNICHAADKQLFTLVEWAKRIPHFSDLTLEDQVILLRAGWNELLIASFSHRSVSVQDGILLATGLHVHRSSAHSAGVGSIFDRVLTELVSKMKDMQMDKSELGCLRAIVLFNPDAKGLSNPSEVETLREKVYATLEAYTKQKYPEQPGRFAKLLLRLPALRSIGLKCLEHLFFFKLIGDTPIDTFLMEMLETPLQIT
T2 sequence (P43354 whole entry partner): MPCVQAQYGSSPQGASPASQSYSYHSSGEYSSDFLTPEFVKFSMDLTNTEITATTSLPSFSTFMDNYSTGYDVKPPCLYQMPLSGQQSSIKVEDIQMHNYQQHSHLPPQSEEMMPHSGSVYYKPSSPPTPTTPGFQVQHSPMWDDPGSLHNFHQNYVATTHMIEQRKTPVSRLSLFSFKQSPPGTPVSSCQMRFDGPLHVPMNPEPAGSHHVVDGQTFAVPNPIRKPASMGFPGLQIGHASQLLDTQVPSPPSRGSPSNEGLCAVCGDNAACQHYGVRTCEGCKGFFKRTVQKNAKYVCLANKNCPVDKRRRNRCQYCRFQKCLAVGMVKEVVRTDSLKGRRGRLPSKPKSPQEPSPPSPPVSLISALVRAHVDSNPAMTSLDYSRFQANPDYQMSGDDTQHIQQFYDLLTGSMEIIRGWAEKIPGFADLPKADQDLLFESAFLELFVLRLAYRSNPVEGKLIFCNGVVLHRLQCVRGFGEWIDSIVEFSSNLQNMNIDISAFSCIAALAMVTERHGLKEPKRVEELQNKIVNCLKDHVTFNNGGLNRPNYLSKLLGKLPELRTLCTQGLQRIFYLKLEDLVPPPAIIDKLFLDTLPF
T2 sequence (P04386 1-147 partner limits assumed): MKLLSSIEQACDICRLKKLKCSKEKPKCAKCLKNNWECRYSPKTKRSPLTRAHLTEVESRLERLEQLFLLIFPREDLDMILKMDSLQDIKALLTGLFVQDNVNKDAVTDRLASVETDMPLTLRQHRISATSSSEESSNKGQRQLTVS
T1 sequence (P19793 whole entry): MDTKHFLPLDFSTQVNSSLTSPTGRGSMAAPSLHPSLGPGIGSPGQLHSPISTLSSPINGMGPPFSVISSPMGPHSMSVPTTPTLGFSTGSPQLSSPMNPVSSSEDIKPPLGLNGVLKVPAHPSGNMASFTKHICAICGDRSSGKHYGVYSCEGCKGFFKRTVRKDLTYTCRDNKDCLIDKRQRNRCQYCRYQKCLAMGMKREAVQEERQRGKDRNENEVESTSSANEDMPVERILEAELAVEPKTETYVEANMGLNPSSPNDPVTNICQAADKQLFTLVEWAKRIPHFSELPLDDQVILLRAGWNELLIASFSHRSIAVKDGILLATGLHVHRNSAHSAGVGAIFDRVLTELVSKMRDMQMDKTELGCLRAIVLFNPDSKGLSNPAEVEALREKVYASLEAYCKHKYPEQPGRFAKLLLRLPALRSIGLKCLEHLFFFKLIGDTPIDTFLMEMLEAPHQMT
T1 sequence (P43354 whole entry partner): as the sequence (P43354 whole entry partner) above
T1 sequence (P04386 1-147 partner limits assumed): as the sequence (P04386 1-147 partner limits assumed) above

In the case of `Cc1cc(-c2cc(C(C)(C)C)cc(C(C)(C)C)c2)cc(N2CC(C(=O)O)C2)c1` [Example 7, 1-[3-(3,5-di-tertbutylphenyl)-5-methylphenyl]azetidine-3-carboxylic acid], in data set [1], the AUC was 48600 ng·h/mL and the Cmax (commonly the maximum level reached in the sampled fluid or tissue) turned out to be 12800 ng/mL. Besides, at NURR-1/RXRα, the Emax – broadly, the maximal effect, on the per cent scale that the assay sets – is 100% and the EC50 (as a rule, the concentration at which the effect is half-maximal) came out at 4 nM. In addition, at NURR-1/RXRγ, the Emax stood at 97% and the EC50 turned out to be 6 nM. Further, the “percentage of activity relative to the BDNF reference” value in data set [2] (compound 1 μM) was 61%. Also, the “percentage of activity relative to the BDNF reference” value in data set [2] (compound 10 μM) amounted to 72%. Moreover, in data set [3], the Kp (as a rule, tissue or fluid exposure divided by exposure in the circulation) at 4 h was 0.76 and the Cmax at 4 h was found to be 6750 ng/mL.
On to `CC1(C)CNc2c(cc(C(C)(C)C)cc2-c2cccc(N3CC(C(=O)[O-])C3)c2)O1.[Na+]` [Example 187, sodium 1-[3-(7-tert-butyl-2,2-dimethyl-3,4-dihydro-1,4-benzoxazin-5-yl)phenyl]azetidine-3-carboxylate], for which the melting point (in general, the temperature, or range, at which the solid turns liquid) is 205 to 213 °C. Further, in data set [1], the AUC was determined as 5190 ng·h/mL and the Cmax was 2740 ng/mL. For the same compound, at NURR-1/RXRα, the Emax was 91% and the EC50 was 5 nM. At NURR-1/RXRγ, the Emax came to 80% and the EC50 came to 23 nM. In data set [3], the Kp at 4 h was found to be 1.27 and the peak level (Cmax at 4 h) was 1360 ng/mL.
Regarding `CC(C)c1cc2c(c(-c3cccc(N4CC(C(=O)[O-])C4)c3)c1)NCC1(CCC1)O2.[Na+]` [Example 196, sodium 1-[3-(7-isopropylspiro[3,4-dihydro-1,4-benzoxazine-2,1′-cyclobutane]-5-yl)phenyl]azetidine-3-carboxylate], the melting point was 143 to 154 °C. For the same compound, in data set [1], the AUC is 34100 ng·h/mL and the concentration peaked (Cmax) at 14100 ng/mL. On NURR-1/RXRα, the Emax was 98% and the EC50 is 11 nM. On NURR-1/RXRγ, the Emax worked out at 86% and the EC50 worked out at 42 nM. In data set [3], the Kp at 4 h was 0.44 and the Cmax at 4 h amounted to 1920 ng/mL.
Take `CC(C)c1cc2c(c(-c3cccc(N4CC(C(=O)O)C4)c3)c1)NCCC2` [Example 199, 1-[3-(6-isopropyl-1,2,3,4-tetrahydroquinolin-8-yl)phenyl]azetidine-3-carboxylic acid]: the melting point lay within 77 to 79 °C. Further, in data set [1], the AUC amounted to 19000 ng·h/mL and the Cmax is 17500 ng/mL. Also, on NURR-1/RXRα, the Emax was 103% and the EC50 was 24 nM. In addition, on NURR-1/RXRγ, the Emax was determined as 117% and the EC50 came to 95 nM. Further, in data set [3], the Kp at 4 h worked out at 0.28 and the Cmax at 4 h stood at 4920 ng/mL.
On to `CC(C)c1cc2c(c(-c3cccc(N4CC(C(=O)O)C4)c3)c1)NCCC(C)(C)O2` [Example 200, 1-[3-(8-isopropyl-2,2-dimethyl-4,5-dihydro-3H-1,5-benzoxazepin-6-yl)phenyl]azetidine-3-carboxylic acid], for which the melting point lay in the range of 74 to 79 °C. In addition, in data set [1], the AUC turned out to be 2920 ng·h/mL and the Cmax stood at 3800 ng/mL. Besides, at NURR-1/RXRα, the Emax amounted to 95% and the EC50 came out at 127 nM. At NURR-1/RXRγ, the Emax worked out at 78% and the EC50 was 244 nM. For the same compound, in data set [3], the Kp at 4 h came to 0.19 and the Cmax at 4 h is 1010 ng/mL.
For the compound `CC1(C)CN(c2cccc(N3CC(C(=O)[O-])C3)c2)c2ccc(C(C)(C)C)cc2O1.[Na+]` [Example 225, sodium 1-[3-(7-tert-butyl-2,2-dimethyl-3-H-1,4-benzoxazin-4-yl)phenyl]azetidine-3-carboxylate], the melting point lay within 223 to 227 °C. Also, in data set [1], the AUC was 13700 ng·h/mL and the highest concentration (Cmax) is 6430 ng/mL. In addition, on NURR-1/RXRα, the Emax is 113% and the EC50 was found to be 79 nM. Also, on NURR-1/RXRγ, the Emax worked out at 122% and the EC50 was found to be 173 nM. Moreover, in data set [3], the Kp at 4 h worked out at 0.42 and the Cmax at 4 h was 3260 ng/mL.
Compound `CC(C)c1ccc2c(c1)OC(C)(C)CN2c1cccc(N2CC(C(=O)O)C2)c1` [Example 228, 1-[3-(7-isopropyl-2,2 dimethyl-3H-1,4-benzoxazin-4-yl)phenyl]azetidine-3-carboxylic acid] gave a melting point of 64 to 70 °C. In data set [1], the AUC was 15500 ng·h/mL and the Cmax came to 6970 ng/mL. On NURR-1/RXRα, the Emax came out at 111% and the EC50 stood at 97 nM. At NURR-1/RXRγ, the Emax was determined as 112% and the EC50 came to 147 nM. In data set [3], the Kp at 4 h was found to be 0.29 and the peak concentration (Cmax) at 4 h worked out at 2160 ng/mL.
`CC1(C)C=C(c2cccc(N3CC(C(=O)[O-])C3)c2)c2ccc(C(F)(F)F)cc2O1.[Na+]` [Example 263, sodium 1-[3-[2,2-dimethyl-7-(trifluoromethyl)chromen-4-yl]phenyl]azetidine-3-carboxylate] gave a melting point of 172 to 195 °C. Moreover, in data set [1], the AUC was 33700 ng·h/mL and the Cmax worked out at 7560 ng/mL. At NURR-1/RXRα, the Emax came out at 113% and the EC50 turned out to be 0.81 nM. Besides, at NURR-1/RXRγ, the Emax was found to be 99% and the EC50 amounted to 2 nM. Besides, in data set [3], the Kp at 4 h turned out to be 0.36 and the Cmax at 4 h worked out at 7660 ng/mL.
With `CC1(C)CN(c2cccc(N3CC(C(N)=O)C3)c2)c2ccc(C(F)(F)F)cc2O1` [Example 273, 1-[3-[2,2-dimethyl-7-(trifluoromethyl)-3H-1,4-benzoxazin-4-yl]phenyl]azetidine-3-carboxamide], the melting point amounted to 100 °C. Also, in data set [1], the AUC amounted to 372 ng·h/mL and the concentration peaked (Cmax) at 584 ng/mL. For the same compound, at NURR-1/RXRα, the Emax was 110% and the EC50 was 6 nM. Moreover, at NURR-1/RXRγ, the Emax came to 123% and the EC50 stood at 12 nM. In data set [3], the Kp at 4 h came out at 1.81 and the peak level (Cmax at 4 h) was 98 ng/mL.
